For the experiment, the system named is BaF3 V617F cells; UKE-1. As to the kind of experiment: Proliferation Assay (Cell Titer-Glo; Example 7). In kind it is cell-based. The settings on record: proliferation 72 hours, inhibit JAK2 activity, cell line (BaF3 V617F or UKE-1) not stated. In short, it runs like this:
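BaF3 V617F cells (RPMI, 10% FBS) and UKE-1 cells (Iscove's DMEM, 10% FBS, 10% equine serum, 1 uM hydrocortisone) were exposed to 3-fold serially diluted compound in duplicate for 72 hours at 37 °C. Viable cell number quantified by Cell Titer-Glo luminescence; IC50 reported.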

Drawing on US8304422B2, “Compositions and methods for inhibition of the JAK pathway” (Rigel Pharmaceuticals, Inc., priority 2007, dated 2012), this text covers IC50 for 34 molecules.

`CCNS(=O)(=O)NCc1ccc(Nc2nc(Nc3ccc(N4CCN(C)CC4)cc3)ncc2Cl)cc1` [II-114, 5-Chloro-N4-[(4-(ethylamino)sulfonylamino)methylphenyl]-N2-[4-(4-methyl-1-piperazinyl)phenyl]-2,4-pyrimidinediamine] displayed a half-maximal inhibitory concentration (IC50) of 180 nM.

“5-Chloro-N4-[3-(N-cyclopropylsulfonylamino)methylphenyl]-N2-[4-(N-methylpiperizin-4-yl)phenyl]-2,4-pyrimidinediamine [II-191]” yielded a 50% inhibitory concentration (IC50) of 466 nM.

In the case of “5-Chloro-N2-(3,5-dimethyl-5-methoxyphenyl)-N4-[(4-(dimethylamino)sulfonylamino)methylphenyl]-2,4-pyrimidinediamine [II-90]”, the IC50 was 83.6 nM.

As for `CCc1cnc(Nc2ccc(N3CCN(C)CC3)cc2)nc1Nc1ccc(CNS(=O)(=O)C2CC2)cc1` [II-86, N4-[4-(N-Cyclopropylsulfonylamino)methylphenyl]-5-ethyl-N2-[4-(4-methyl-1-piperazinyl)phenyl]-2,4-pyrimidinediamine], the half-maximal inhibitory concentration (IC50) turned out to be 724 nM.

With `COc1c(C)cc(Nc2ncc(Cl)c(Nc3cccc(CNS(=O)(=O)C4CC4)c3)n2)cc1C` [II-192, 5-Chloro-N4-[3-(N-cyclopropylsulfonylamino)methylphenyl]-N2-[3,5-dimethyl-4-methoxyphenyl]-2,4-pyrimidinediamine], the IC50 was 378 nM.

Regarding `COc1cc(C)c(Nc2ncc(Cl)c(Nc3ccc(CCNS(=O)(=O)C4CC4)cc3)n2)c(C)c1` [II-46, 5-Chloro-N4[4-(N-cyclopropylsulfonylamino)ethylphenyl]-N2-[4-(2,6-dimethyl-methoxy)phenyl]-2,4-pyrimidinediamine], the IC50 is 592 nM.

Molecule `O=S(=O)(NCCc1ccc(Nc2nc(Nc3ccc(-c4ccccc4)cc3)ncc2Cl)cc1)C1CC1` [II-58, 5-Chloro-N4[4-(N-cyclopropylsulfonylamino)ethylphenyl]-N2-[4-biphenyl]-2,4-pyrimidinediamine] came in with an IC50 of 16200 nM.

The molecule `Cc1cnc(Nc2ccc(S(=O)(=O)C(F)(F)F)cc2)nc1Nc1ccc(CCNS(=O)(=O)C2CC2)cc1` [II-59] showed a half-inhibitory concentration (IC50) of 3140 nM.

In the case of `Cc1cnc(Nc2c(C)cc(OC(C)C)cc2C)nc1Nc1ccc(CCNS(=O)(=O)C2CC2)cc1` [II-64], inhibition was half-maximal at 548 nM (IC50).

The molecule `Cc1cnc(Nc2cncc(C)c2N2CCN(C)CC2)nc1Nc1ccc2c(c1)S(=O)(=O)NCC2` [VII-6, 5-Methyl-N4-[3,4-dihydro-1,1-dioxide-2H-1,2-benzothiazin-7-yl]-N2-[5-methyl-4-(N-methylpiperizin-4-yl)pyridine-3-yl]-2,4-pyrimidinediamine] registered an IC50 of 1900 nM.

On to “N4-[4-(N-cyclopropylsulfonylamino)ethylphenyl)]-5-methyl-N2-[4-(6-methoxy-2-methyl)methoxyphenyl]-2,4-pyrimidinediamine [II-66]”, for which the IC50 came out at 467 nM.

Consider `CC(C)(C)Oc1ccc(Nc2ncc(Cl)c(Nc3ccc(CCNS(=O)(=O)C4CC4)cc3)n2)cc1` [II-47, 5-Chloro-N4[4-(N-cyclopropylsulfonylamino)ethylphenyl]-N2-[4-(2,6-dimethyl-ethoxy)phenyl]-2,4-pyrimidinediamine], for which the IC50 amounted to 487 nM.

The molecule `CN1CCN(c2ccc(Nc3ncc(Cl)c(Nc4ccc(CNS(=O)(=O)NC5CC5)cc4)n3)cn2)CC1` [II-169, 5-Chloro-N4-[4-((N-cyclopropylamino)sulfonylamino)methylphenyl]-N2-[6-(4-methyl-1-piperazinyl)-3-pyridinyl]-2,4-pyrimidinediamine] registered an IC50 of 348 nM.

`CCOc1c(C)cc(Nc2ncc(Cl)c(Nc3ccc(CNS(=O)(=O)NC4CC4)cc3)n2)cc1C` [II-155, 5-Chloro-N4-[4-((N-cyclopropylamino)sulfonylamino)methylphenyl]-N2-(3,5-dimethyl-4-ethoxyphenyl)-2,4-pyrimidinediamine] returned a half-inhibitory concentration (IC50) of 83.1 nM.

As for `Cc1cnc(Nc2ccc(N3CCN(S(C)(=O)=O)CC3)cc2)nc1Nc1ccc(CNS(=O)(=O)C2CC2)cc1` [II-206], 1560 nM corresponded to half-maximal inhibition (IC50).

Turning to “5-Chloro-N4-[4-(N-cyclopropyl-N-acetylsulfonylamino)methylphenyl]-N2-[3,4-dimethyl-5-methoxyphenyl]-2,4-pyrimidinediamine [II-217]”, the IC50 came to 233 nM.

With `COc1c(C)cc(Nc2ncc(C)c(Nc3ccc(CNS(=O)(=O)N(C)C)cc3)n2)cc1C` [II-99, 4-[(4-(Dimethylamino)sulfonylamino)methylphenyl]-N2-(3,5-dimethyl-4-methoxyphenyl)-5-methyl-2,4-pyrimidinediamine], the midpoint of inhibition, the IC50, lay at 103 nM.

`Cc1cc(CNS(=O)(=O)NC2CC2)ccc1Nc1nc(Nc2ccc(N3CCN(C)CC3)cc2)ncc1Cl` [II-180, 5-Chloro-N4-[2-methyl-4-((N-cyclopropylamino)sulfonylamino)methylphenyl]-N2-[4-(4-methyl-1-piperazinyl)phenyl]-2,4-pyrimidinediamine]: the IC50 is 633 nM.

“N4-[4-(N-Cyclopropylsulfonylamino)methylphenyl]-N2-[3,4-dimethyl-4-(2-(4-morpholinyl)ethoxy)phenyl]-5-methyl-2,4-pyrimidinediamine [II-159]” yielded an IC50 of 47.6 nM.

With “5-Chloro-N4-[4-(N-cyclopropyl-N-propionylsulfonylamino)methylphenyl]-N2-[3,5-dimethyl-4-methoxyphenyl]-2,4-pyrimidinediamine [II-218]”, 248 nM corresponded to half-maximal inhibition (IC50).

Consider `CCc1cnc(Nc2cc(Cl)c(OC)c(Cl)c2)nc1Nc1ccc(CNS(=O)(=O)C2CC2)cc1` [II-84, N4-[4-(N-Cyclopropylsulfonylamino)methylphenyl]-N2-(3,5-dichloro-4-methoxyphenyl)-5-ethyl-2,4-pyrimidinediamine], for which 38300 nM corresponded to half-maximal inhibition (IC50).

On to `COc1c(C)cc(Nc2ncc(Cl)c(Nc3ccc4c(c3)S(=O)(=O)NCC4)n2)cc1C` [VII-1, 5-Chloro-N4-[3,4-dihydro-1,1-dioxide-2H-1,2-benzothiazin-7-yl]-N2-[3,5-dimethyl-4-methoxyphenyl]-2,4-pyrimidinediamine], for which the half-maximal inhibitory concentration (IC50) was found to be 229 nM.

`Cc1cnc(Nc2cc(C)c(C)c(C)c2)nc1Nc1ccc2c(c1)S(=O)(=O)NCC2` [VII-8, 5-Methyl-N4-[3,4-dihydro-1,1-dioxide-2H-1,2-benzothiazin-7-yl]-N2-[3,4,5-trimethylphenyl]-2,4-pyrimidinediamine] showed an IC50 of 1610 nM.

In turn, `Cc1cnc(Nc2cncc(C)c2N2CCN(C)CC2)nc1Nc1ccc(CNS(=O)(=O)C2CC2)cc1` [II-224, 5-Methyl-N4-[4-(N-cyclopropylsulfonylamino)methylphenyl]-N2-[5-methyl-4-(N-methylpiperizin-4-yl)pyridin-3-yl]-2,4-pyrimidinediamine] returned an IC50 of 848 nM.

The molecule `COc1c(Cl)cc(Nc2ncc(C)c(Nc3ccc(CNS(=O)(=O)N(C)C)cc3)n2)cc1Cl` [II-102, 5-methyl-N2-[3,5-dichloro-4-methoxyphenyl]-N4-[(4-(dimethylamino)sulfonylamino)methylphenyl]-2,4-pyrimidinediamine] registered a half-inhibitory concentration (IC50) of 1170 nM.

With `COc1c(C)cc(Nc2ncc(Cl)c(Nc3ccc(CNS(N)(=O)=O)cc3)n2)cc1C` [II-146, N4-[4-(Aminosulfonylamino)methylphenyl]-5-chloro-N2-(3,5-dimethyl-4-methoxyphenyl)-2,4-pyrimidinediamine], the 50% inhibitory concentration (IC50) turned out to be 225 nM.

In turn, `CN1CCN(c2ccncc2Nc2ncc(Cl)c(Nc3ccc(CNS(=O)(=O)C4CC4)cc3)n2)CC1` [II-216, 5-Chloro-N4-[4-(N-cyclopropylsulfonylamino)methylphenyl]-N2-[4-(N-methylpiperizin-4-yl)pyridine-3-yl]-2,4-pyrimidinediamine] registered an IC50 of 246 nM.

Regarding `CCNS(=O)(=O)NCc1ccc(Nc2nc(Nc3ccc(C4CCN(C)CC4)cc3)ncc2Cl)cc1` [II-115, 5-chloro-N4-[(4-(ethylamino)sulfonylamino)methylphenyl]-N2-[4-(1-methyl-4-piperidinyl)pheny]-2,4-pyrimidinediamine], the IC50 was 409 nM.

The molecule `Cc1cc(Nc2ncc(Cl)c(Nc3ccc(CNS(=O)(=O)NC4CC4)cc3)n2)ccc1N1CCN(C)CC1` [II-168, 5-Chloro-N4-[4-((N-cyclopropylamino)sulfonylamino)methylphenyl]-N2-[3-methyl-4-(4-methyl-1-piperazinyl)phenyl]-2,4-pyrimidinediamine] came in with an IC50 of 2050 nM.

In the case of `Cc1cnc(Nc2ccc(N3CCN(C)CC3)cc2)nc1Nc1ccc2c(c1)C(NS(=O)(=O)C1CC1)CC2` (racemic) [V-4, (+/−)-N4-[1-(Cyclopropylsulfonylamino)indan-6-yl]-5-methyl-N2-[4-(4-methyl-1-piperazinyl)phenyl]-2,4-pyrimidinediamine], the IC50 was 686 nM.

“5-Chloro-N4-[4-(N-cyclopropylsulfonylamino)methylphenyl]-N2-[3-methyl-4-(N-methylpiperizin-4-yl)phenyl]-2,4-pyrimidinediamine [II-203]” returned a half-maximal inhibitory concentration (IC50) of 1500 nM.

`CCNS(=O)(=O)NCc1ccc(Nc2nc(Nc3cc(OC)c(OC)c(OC)c3)ncc2C)cc1` [II-120, N4-[(4-(Ethylamino)sulfonylamino)methylphenyl]-5-methyl-N2-(3,4,5-trimethoxyphenyl)-2,4-pyrimidinediamine] returned an IC50 of 871 nM.

The molecule `COc1cc(Nc2ncc(C)c(Nc3ccc(CNS(=O)(=O)C4CC4)cc3)n2)cc(C)c1OC` [II-197, 5-Methyl-N4-[4-(N-cyclopropylsulfonylamino)methylphenyl]-N2-[3,4-dimethoxy-5-methylphenyl]-2,4-pyrimidinediamine] displayed a 50% inhibitory concentration (IC50) of 92 nM.

`COc1cc(Nc2ncc(Cl)c(Nc3ccc(CNS(=O)(=O)NC4CC4)cc3C)n2)cc(C)c1OC` [II-179, 5-Chloro-N2-(3,4-dimethoxy-5-methylphenyl)-N4-[2-methyl-4-((N-cyclopropylamino)sulfonylamino)methylphenyl]-2,4-pyrimidinediamine] came in with a concentration for half-maximal inhibition (IC50) of 215 nM.
